ChEMBL document CHEMBL5126581, “Chlorinated benzothiadiazines inhibit angiogenesis through suppression of VEGFR2 phosphorylation” (Bioorg Med Chem, 2022)
Active and inactive are the calls of the source. The calls are words filed in the database; no cut-off is given here.

Assays:
[1] = test system: HUVEC; experiment: Antiangiogenic activity in HUVEC cells assessed as inhibition of VEGF-induced cell proliferation at 20 uM incubated for 48 hrs by MTT assay relative to control; format: functional; details: Homo sapiens, values are per cent of control
[2] = test system: MDA-MB-468; experiment: Cytotoxicity against human MDA-MB-468 cells assessed as inhibition of cell growth incubated for 72 hrs by MTS assay; format: functional, cell-based; details: MDA-MB-468, 72 h
[3] = target: Vascular endothelial growth factor receptor 2 (Homo sapiens, UniProt P35968); experiment: Inhibition of VEGFR2 phosphorylation in VEGF-induced HUVEC cells assessed as reduction in pVEGFR2 level at 20 uM incubated for 5 mins by Western blot analysis; format: cell-based
Sequence of Vascular endothelial growth factor receptor 2 (P35968 whole entry): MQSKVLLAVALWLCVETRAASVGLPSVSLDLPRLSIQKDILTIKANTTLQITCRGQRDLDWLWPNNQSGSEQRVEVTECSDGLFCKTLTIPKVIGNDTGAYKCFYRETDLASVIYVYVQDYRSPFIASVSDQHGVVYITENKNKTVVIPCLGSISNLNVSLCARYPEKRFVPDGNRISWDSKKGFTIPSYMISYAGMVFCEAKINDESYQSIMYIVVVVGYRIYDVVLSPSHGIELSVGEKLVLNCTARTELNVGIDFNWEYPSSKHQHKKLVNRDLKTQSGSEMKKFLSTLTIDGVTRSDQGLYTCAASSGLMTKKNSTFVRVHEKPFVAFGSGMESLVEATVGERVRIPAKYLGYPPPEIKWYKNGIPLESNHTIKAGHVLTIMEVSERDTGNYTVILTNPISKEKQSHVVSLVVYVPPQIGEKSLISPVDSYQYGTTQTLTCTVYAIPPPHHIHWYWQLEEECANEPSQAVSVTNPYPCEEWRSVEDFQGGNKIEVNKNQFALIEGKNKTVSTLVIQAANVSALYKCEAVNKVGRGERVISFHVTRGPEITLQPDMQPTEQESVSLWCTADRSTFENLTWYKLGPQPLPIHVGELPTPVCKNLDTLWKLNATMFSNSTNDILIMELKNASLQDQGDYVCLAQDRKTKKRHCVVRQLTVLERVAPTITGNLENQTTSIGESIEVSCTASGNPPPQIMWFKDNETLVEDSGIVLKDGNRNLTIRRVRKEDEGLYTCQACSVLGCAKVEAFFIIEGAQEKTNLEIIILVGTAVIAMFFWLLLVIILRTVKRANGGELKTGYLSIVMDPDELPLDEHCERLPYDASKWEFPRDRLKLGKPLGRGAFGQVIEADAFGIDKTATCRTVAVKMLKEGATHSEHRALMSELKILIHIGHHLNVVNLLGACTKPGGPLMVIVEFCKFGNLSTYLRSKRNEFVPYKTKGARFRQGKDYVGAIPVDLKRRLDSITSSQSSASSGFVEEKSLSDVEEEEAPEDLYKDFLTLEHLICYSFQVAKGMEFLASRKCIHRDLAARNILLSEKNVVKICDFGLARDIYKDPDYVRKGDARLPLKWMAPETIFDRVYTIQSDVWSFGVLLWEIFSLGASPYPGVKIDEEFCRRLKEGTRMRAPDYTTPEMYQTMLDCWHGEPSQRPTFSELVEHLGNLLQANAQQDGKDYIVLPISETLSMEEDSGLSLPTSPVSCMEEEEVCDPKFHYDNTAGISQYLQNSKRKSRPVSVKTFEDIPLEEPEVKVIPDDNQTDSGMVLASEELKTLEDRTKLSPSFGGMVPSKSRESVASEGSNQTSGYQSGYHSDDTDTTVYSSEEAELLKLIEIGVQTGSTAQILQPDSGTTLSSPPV

[4] = target: Carbonic anhydrase 1 (Homo sapiens, UniProt P00915); experiment: Inhibition of recombinant human carbonic anhydrase 1 assessed as inhibition constant incubated for 1 hr prior to testing by phenol red based stopped-flow CO2 hydration assay
Sequence of Carbonic anhydrase 1 (P00915 whole entry): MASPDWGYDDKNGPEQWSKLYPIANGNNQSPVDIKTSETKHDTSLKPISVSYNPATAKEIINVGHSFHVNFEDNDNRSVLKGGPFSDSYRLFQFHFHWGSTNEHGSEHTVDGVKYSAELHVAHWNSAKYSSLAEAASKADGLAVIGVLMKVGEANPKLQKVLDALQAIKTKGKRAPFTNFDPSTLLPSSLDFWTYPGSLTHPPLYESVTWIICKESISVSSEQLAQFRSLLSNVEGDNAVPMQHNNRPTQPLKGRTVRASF

[5] = target: Carbonic anhydrase 2 (Homo sapiens, UniProt P00918); experiment: Inhibition of recombinant human carbonic anhydrase 2 assessed as inhibition constant incubated for 1 hr prior to testing by phenol red based stopped-flow CO2 hydration assay
[6] = target: Carbonic anhydrase 9 (Homo sapiens, UniProt Q16790); experiment: Inhibition of recombinant human carbonic anhydrase 9 assessed as inhibition constant incubated for 1 hr prior to testing by phenol red based stopped-flow CO2 hydration assay
[7] = target: Carbonic anhydrase 12 (Homo sapiens, UniProt O43570); experiment: Inhibition of recombinant human carbonic anhydrase 12 assessed as inhibition constant incubated for 1 hr prior to testing by phenol red based stopped-flow CO2 hydration assay
Sequence of Carbonic anhydrase 12 (O43570 whole entry): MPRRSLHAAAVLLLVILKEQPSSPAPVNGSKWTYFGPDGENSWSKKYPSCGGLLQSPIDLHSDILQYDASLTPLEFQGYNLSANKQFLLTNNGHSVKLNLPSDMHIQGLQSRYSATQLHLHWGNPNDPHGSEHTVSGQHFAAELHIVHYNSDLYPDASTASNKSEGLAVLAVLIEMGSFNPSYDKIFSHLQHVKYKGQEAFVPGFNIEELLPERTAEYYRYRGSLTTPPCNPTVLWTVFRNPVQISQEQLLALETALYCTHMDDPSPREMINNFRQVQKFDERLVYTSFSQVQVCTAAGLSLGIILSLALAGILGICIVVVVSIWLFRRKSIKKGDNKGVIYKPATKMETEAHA

[8] = Cytotoxicity against HEK293 cells assessed as inhibition of cell growth incubated for 72 hrs by MTS assay; format: toxicity, cell-based; details: human
[9] = Selectivity index, ratio of IC50 for cytotoxicity against HEK293 cells to IC50 for cytotoxicity against human MDA-MB-468 cells; format: toxicity, cell-based; details: HEK293 cells versus MDA-MB-468 cells, read-out: Ratio IC50

Compound | growth, % of control at 20 µM [1] [%] | IC50 [2] [µM] | also measured
CC(NC1=NS(=O)(=O)c2cc(Cl)ccc2N1)c1ccccc1 (stereo not drawn) | 53.7 | – | –
O=S1(=O)N=C(NC2CCCC2)Nc2cc(Cl)ccc21 | 174 | 148 | –
O=S1(=O)N=C(NCc2ccc(OC(F)(F)F)cc2)Nc2ccc(Cl)cc21 | 120 | 43.4 | –
COc1cccc(CNC2=NS(=O)(=O)c3cc(Cl)ccc3N2)c1 | 95.5 | > 100 | inhibition [3]: Active
O=S1(=O)N=C(NCCc2ccccc2)Nc2ccc(Cl)cc21 | 81.7 | – | –
O=S1(=O)N=C(NCCc2c[nH]c3ccccc23)Nc2cc(Cl)ccc21 | 34.1 | – | –
O=S1(=O)N=C(NCCc2ccccc2)Nc2cc(Cl)ccc21 | 197 | – | –
COc1cccc(CCNC2=NS(=O)(=O)c3ccc(Cl)cc3N2)c1 | 103 | – | –
Cc1ccc(CNC2=NS(=O)(=O)c3ccc(Cl)cc3N2)cc1 | 146 | – | –
Cc1cccc(CNC2=NS(=O)(=O)c3cc(Cl)ccc3N2)c1 | 145 | 117 | inhibition [3]: Active
Cc1ccc(CNC2=NS(=O)(=O)c3cc(Cl)ccc3N2)cc1 | 119 | 43.1 | –
COc1ccc(CNC2=NS(=O)(=O)c3cc(Cl)ccc3N2)cc1 | 90.7 | 62.9 | Ki [4]: > 100 µM; Ki [5]: > 100 µM; Ki [6]: > 100 µM; Ki [7]: > 100 µM
O=S1(=O)N=C(NCCCc2ccccc2)Nc2ccc(Br)cc21 | 28.6 | – | –
O=S1(=O)N=C(NCc2ccc(F)cc2F)Nc2ccc(Br)cc21 | 127 | – | –
Cc1cccc(CNC2=NS(=O)(=O)c3ccc(Cl)cc3N2)c1 | 125 | – | –
CC(NC1=NS(=O)(=O)c2cc(Br)ccc2N1)c1ccccc1 (stereo not drawn) | 104 | – | –
O=S1(=O)N=C(NCCCc2ccccc2)Nc2cc(Cl)ccc21 | 175 | 91.9 | IC50 at 72 h [8]: 111 µM; selectivity ratio [9]: 1.2
O=S1(=O)N=C(NCc2ccccc2)Nc2ccc(Cl)cc21 | 122 | – | –
O=S1(=O)N=C(NCCc2ccccc2)Nc2ccc(Br)cc21 | 52.7 | – | –
CC(NC1=NS(=O)(=O)c2ccc(Cl)cc2N1)c1ccccc1 (stereo not drawn) | 40.5 | 91.1 | –
O=S1(=O)N=C(NCc2ccccc2)Nc2cc(Cl)ccc21 | 200 | 64.2 | IC50 at 72 h [8]: 102 µM; selectivity ratio [9]: 1.5
CCCCCC(=O)c1c(O)nc(OC)c(OC)c1O | – | 6.71 | IC50 at 72 h [8]: 25.9 µM; selectivity ratio [9]: 3.9
CSC1=NS(=O)(=O)c2cc(F)ccc2N1C | 70.1 | – | –
O=S1(=O)N=C(NCc2ccc(OC(F)(F)F)cc2)Nc2ccccc21 | 88.6 | 71 | –
COc1cccc(CNC2=NS(=O)(=O)c3ccc(Cl)cc3N2)c1 | 129 | – | –
O=S1(=O)N=C(NCCc2c[nH]c3ccccc23)Nc2ccc(F)cc21 | 41.8 | – | –
